Reference: ChEMBL document CHEMBL1287786, “Synthesis, antimicrobial and antioxidant evaluation of quinolines and bis(indolyl)methanes” (2010)

Legend:
Format in all cases: functional
[1] = Antioxidant activity assessed as hydrogen peroxide radical scavenging activity after 20 mins by spectrophotometry relative to control; design: concentration or dose not given beside the values
[2] = Antioxidant activity assessed as hydrogen peroxide radical scavenging activity after 30 mins by spectrophotometry relative to control; design: concentration or dose not given beside the values
[3] = Antioxidant activity assessed as hydrogen peroxide radical scavenging activity after 10 mins by spectrophotometry relative to control; design: concentration or dose not given beside the values
[4] = Antioxidant activity assessed as hydrogen peroxide radical scavenging activity after 40 mins by spectrophotometry relative to control; design: concentration or dose not given beside the values
[5] = Antioxidant activity assessed as hydrogen peroxide radical scavenging activity by spectrophotometry relative to control; design: concentration or dose not given beside the values
[6] = system: Staphylococcus aureus; experiment: Antibacterial activity against Staphylococcus aureus ATCC 25923 at 1000 ug/ml after 24 hrs by cup plate method; conditions: ATCC 25923, 24 h, read-out: IZ
[7] = system: Candida albicans; experiment: Antifungal activity against Candida albicans ATCC 10231 at 1000 ug/ml after 24 hrs by cup plate method; conditions: ATCC 10231, 24 h, read-out: IZ
[8] = system: Escherichia coli; experiment: Antibacterial activity against Escherichia coli ATCC 25922 at 1000 ug/ml after 24 hrs by cup plate method; conditions: ATCC 25922, 24 h, read-out: IZ
[9] = system: Radical scavenging activity; experiment: Antioxidant activity assessed as DPPH radical scavenging activity at 50 ug by spectrophotometry relative to control
[10] = system: Radical scavenging activity; experiment: Antioxidant activity assessed as DPPH radical scavenging activity at 1000 ug by spectrophotometry relative to control
[11] = system: Radical scavenging activity; experiment: Antioxidant activity assessed as DPPH radical scavenging activity at 500 ug by spectrophotometry relative to control

| SMILES | Activity [1] [%] | Activity [2] [%] | Activity [3] [%] | Activity [4] [%] | Activity [5] [%] | zone of inhibition at 1000 µg/mL [6] [mm] | zone of inhibition at 1000 µg/mL [7] [mm] | zone of inhibition at 1000 µg/mL [8] [mm] | Activity [9] [%] | Activity [10] [%] | Activity [11] [%] |
| --- | --- | --- | --- | --- | --- | --- | --- | --- | --- | --- | --- |
| Cc1cc(C(C)(C)C)c(O)c(C(C)(C)C)c1 | 83 | 82 | 86 | 80 | 92 |  |  |  |  |  |  |
| Cc1ccc(-c2cc(-c3ccccc3)c3cc(Cl)ccc3n2)cc1 |  |  |  |  |  | 22 | 23 | 22 |  |  |  |
| COc1cc(C(c2c(-c3ccccc3)[nH]c3ccccc23)c2c(-c3ccccc3)[nH]c3ccccc23)cc(Br)c1O | 74 | 71 | 81 | 65 | 82 | 22 | 26 | 24 | 27 | 70 | 64 |
| CCCCc1cc(-c2ccccc2)c2ccccc2n1 |  |  |  |  |  | 20 | 15 | 19 |  |  |  |
| Clc1nc2ccccc2cc1C(c1c(-c2ccccc2)[nH]c2ccccc12)c1c(-c2ccccc2)[nH]c2ccccc12 | 80 | 73 | 83 | 68 | 84 | 18 | 18 | 15 | 2 | 35 | 12 |
| c1ccc(-c2cc(-c3ccccc3)c3ccccc3n2)cc1 |  |  |  |  |  | 18 | 13 | 17 |  |  |  |
| Cc1ccccc1-c1cc(-c2ccccc2)c2ccccc2n1 |  |  |  |  |  | 15 | 15 | 18 |  |  |  |
| CCCCCc1ccc(-c2cc(C)c3ccccc3n2)cc1 |  |  |  |  |  | 21 | 18 | 18 |  |  |  |
| Cn1c(C(c2c(-c3ccccc3)[nH]c3ccccc23)c2c(-c3ccccc3)[nH]c3ccccc23)cc2ccccc21 | 21 | 20 | 35 | 16 | 43 | 13 | 14 | 16 | 19 | 76 | 63 |
| COc1cc(Br)c(C(c2c(-c3ccccc3)[nH]c3ccccc23)c2c(-c3ccccc3)[nH]c3ccccc23)cc1OC | 74 | 72 | 85 | 69 | 86 | 12 | 16 | 14 | 21 | 69 | 52 |
| c1ccc(-c2[nH]c3ccccc3c2C(c2cccc3ccccc23)c2c(-c3ccccc3)[nH]c3ccccc23)cc1 | 82 | 77 | 84 | 71 | 93 | 23 | 10 | 16 | 25 | 76 | 58 |
| Cc1ccc(-c2cc(-c3ccccc3)c3ccccc3n2)cc1 |  |  |  |  |  | 24 | 19 | 17 |  |  |  |
| c1ccc(-c2[nH]c3ccccc3c2C(c2ccc3c(c2)-c2ccccc2C3)c2c(-c3ccccc3)[nH]c3ccccc23)cc1 | 76 | 73 | 85 | 70 | 88 | 24 | 18 | 18 | 19 | 85 | 66 |
| C[C@@H]1[C@H](O)[C@@H](C)/C=C/C=C/C=C/C=C/C=C/C=C/C=C/[C@H](O[C@@H]2O[C@H](C)[C@@H](O)[C@H](N)[C@@H]2O)C[C@@H]2O[C@](O)(C[C@@H](O)C[C@@H](O)[C@H](O)CC[C@@H](O)C[C@@H](O)CC(=O)O[C@H]1C)C[C@H](O)[C@H]2C(=O)O [AMPHOTERICIN B] |  |  |  |  |  |  | 20 |  |  |  |  |
| O=C(O)c1ccc(C(c2c(-c3ccccc3)[nH]c3ccccc23)c2c(-c3ccccc3)[nH]c3ccccc23)cc1 | 45 | 35 | 45 | 24 | 60 | 24 | 16 | 19 | 17 | 80 | 48 |
| c1ccc(-c2cc(-c3ccccn3)nc3ccccc23)cc1 |  |  |  |  |  | 23 | 18 | 18 |  |  |  |
| Clc1ccc2nc(-c3ccccc3)cc(-c3ccccc3)c2c1 |  |  |  |  |  | 21 | 16 | 18 |  |  |  |
| CCn1c2ccccc2c2cc(C(c3c(-c4ccccc4)[nH]c4ccccc34)c3c(-c4ccccc4)[nH]c4ccccc34)ccc21 | 82 | 75 | 80 | 65 | 85 | 24 | 24 | 23 | 15 | 73 | 42 |
| O=C1O[C@H]([C@@H](O)CO)C(O)=C1O |  |  |  |  |  |  |  |  | 96 | 99 | 97 |
| c1ccc(-c2ccc(C(c3c(-c4ccccc4)[nH]c4ccccc34)c3c(-c4ccccc4)[nH]c4ccccc34)cc2)cc1 | 75 | 70 | 83 | 59 | 87 | 26 | 25 | 26 | 22 | 75 | 55 |
| Clc1ccc(-c2nn(-c3ccccc3)cc2C(c2c(-c3ccccc3)[nH]c3ccccc23)c2c(-c3ccccc3)[nH]c3ccccc23)cc1 | 81 | 80 | 82 | 79 | 83 | 19 | 12 | 15 | 21 | 87 | 65 |
| Cc1ccc2nc(-c3cccc(Br)c3)cc(-c3ccccc3)c2c1 |  |  |  |  |  | 24 | 21 | 22 |  |  |  |
| Brc1cccc(-c2cc(-c3ccccc3)c3ccccc3n2)c1 |  |  |  |  |  | 14 | 10 | 12 |  |  |  |
| Cc1cc(-c2ccccc2)nc2ccccc12 |  |  |  |  |  | 14 | 16 | 20 |  |  |  |
| Brc1cc2c(cc1C(c1c(-c3ccccc3)[nH]c3ccccc13)c1c(-c3ccccc3)[nH]c3ccccc13)OCO2 | 39 | 30 | 43 | 21 | 57 | 25 | 24 | 23 | 10 | 42 | 23 |
| COc1cccc(-c2cc(-c3ccccc3)c3ccccc3n2)c1 |  |  |  |  |  | 21 | 14 | 23 |  |  |  |
